Results reported in the pKa sets of Baltruschat and Czodrowski (2020).

Going from `COc1ccc(CNC(=O)[C@@H](NC(=O)[C@H](Cc2ccc(OC)c(OC)c2)NC(=O)Cc2cccc(Oc3ccccc3)c2)C(C)C)c(O)c1` to `CC/C(=C(\c1ccccc1)c1ccc(/C=C/C(=O)[O-])cc1)c1ccccc1`, the pKa falls from 10.9 to 4.26.

Going from `Fc1ccc([C@H]2CC[NH2+]C[C@@H]2COc2ccc3c(c2)OCO3)cc1` to `COc1ccc(N2CCc3c(-n4ccc(N5CCNC5=O)n4)cc(C)nc32)c(C)c1`, the pKa falls from 9.5 to 6.37.
